Laboratory results taken from article PMC4253011, “Positive allosteric modulation of the adenosine A2a receptor attenuates inflammation” (Journal of Inflammation (London, England), 2014).

Key:
murine model of sepsis = system: murine model of sepsis; set-up: method as in PMID 18937852; conditions: within 4 h of LPS injection ref 26; cited from earlier work
rat A2aR (rA2aR) = rat A2aR (rA2aR) (Rattus norvegicus, UniProt P30543); test: cAMP assay in PC-12 cells (endogenous rat A2aR); conditions: A2bR antagonist pre-incubated 15 min
human monocytes = test: PMA-stimulated TNF-α production by human monocytes; assay type: cell-based
[1] = rapidly degraded in vivo by adenosine deaminase; no reference given; cited from earlier work

Chain of rat A2aR (rA2aR) (P30543 whole entry): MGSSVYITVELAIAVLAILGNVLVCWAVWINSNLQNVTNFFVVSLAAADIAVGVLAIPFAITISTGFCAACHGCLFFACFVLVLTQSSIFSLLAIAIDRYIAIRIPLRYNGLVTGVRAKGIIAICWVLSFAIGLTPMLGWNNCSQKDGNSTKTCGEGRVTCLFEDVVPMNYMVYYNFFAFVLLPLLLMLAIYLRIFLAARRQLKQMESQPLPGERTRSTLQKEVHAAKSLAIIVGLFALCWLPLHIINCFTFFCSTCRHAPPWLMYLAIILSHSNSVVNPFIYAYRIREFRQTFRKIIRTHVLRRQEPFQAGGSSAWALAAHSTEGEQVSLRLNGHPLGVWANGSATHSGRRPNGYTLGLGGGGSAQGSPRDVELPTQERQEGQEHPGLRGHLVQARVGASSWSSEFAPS

In the case of COC(=O)N1CCC(CC#Cc2nc(N)c3ncn([C@@H]4O[C@H](C(=O)NC5CC5)[C@@H](O)[C@H]4O)c3n2)CC1 [ATL313], the “circulating plasma levels of TNF-α, MIP-1α, MCP-1” value (murine model of sepsis) is listed as “decreases” and the “plasma level of IL-10” value (murine model of sepsis) is listed as “increases”.

For CCCn1c(=O)c2[nH]c(-c3ccc(OCC(=O)Nc4ccc(C#N)cc4)cc3)nc2n(CCC)c1=O [MRS 1754, N-(4-Cyanophenyl)-2-[4-(2,3,6,7-tetrahydro-2,6-dioxo-1,3-dipropyl-1H-purin-8-yl)phenoxy]-acetamide], the “effect on adenosine- or adenosine plus AEA061-induced cAMP production” value (rat A2aR (rA2aR)) was “failed to inhibit”.

For CCNC(=O)[C@H]1O[C@@H](n2cnc3c(N)ncnc32)[C@H](O)[C@@H]1O [NECA, 5′-N-Ethylcarboxamidoadenosine], the “effect on PMA-stimulated TNF-α production” value (human monocytes; human monocytes/macrophages, NECA 1 μM, PMA 5 ng/ml, 12 h) was “inhibited”.

In the case of Nc1nc(NCCc2ccc(O)cc2)nc2nc(-c3ccco3)nn12 [ZM 241385, 4-(2-[7-Amino-2-(2-furyl)[1,2,4]triazolo[2,3-a][1,3,5]triazin-5-ylamino]ethyl)phenol], the “effect on AEA061-mediated inhibition of PMA-stimulated TNF-α production” value (human monocytes; human monocytes, 15 min pretreatment, AEA061 1 μM, PMA 5 ng/ml) is reported as “blunted”, the “effect on NECA-mediated inhibition of TNF-α production” value (human monocytes; human monocytes, 15 min pretreatment, NECA 1 μM, PMA 5 ng/ml) is reported as “reversed the NECA-mediated inhibition in a dose-dependent manner” and the “PMA-stimulated TNF-α responsiveness in NECA- and AEA061-treated cells” value (human monocytes; human monocytes, ZM 241385 at 1 μM) is reported as “restored”.

In the case of Nc1ncnc2c1ncn2[C@@H]1O[C@H](CO)[C@@H](O)[C@H]1O [adenosine], the half-life in vivo [1] is listed as “less than 10 seconds”.
